Broadly, the IC50 is the concentration that gives 50% inhibition.

SMILES strings stand for the structures.

For the experiment, the target named is human NaV 1.8 (Homo sapiens, UniProt Q9Y5Y9). Put plainly: E-VIPR Assay Detecting and Measuring NaV Inhibition Properties. The format is cell-based. As to conditions: HEK cells expressing a truncated form of human NaV 1.8 with full channel activity; electrical stimulation, membrane potential FRET dyes; read-out: measured IC50 value in the E-VIPR Assay. An excerpt:
E-VIPR Assay Detecting and Measuring NaV Inhibition Properties
Sodium ion channels are voltage-dependent proteins that can be activated by inducing membrane voltage changes by applying electric fields. The electrical stimulation instrument and methods of use, referred to as E-VIPR, are described in International Publication No. WO 2002/008748 A3 and C.-J. Huang et al. Characterization of voltage-gated sodium channel blockers by electrical stimulation and fluorescence detection of membrane potential, 24 Nature Biotech. 439-46 (2006), both of which are incorporated by reference in their entirety. The instrument comprises a microtiter plate handler, an optical system for exciting the coumarin dye while simultaneously recording the coumarin and oxonol emissions, a waveform generator, a current- or voltage-controlled amplifier, and parallel electrode pairs that are inserted into assay plate wells. Under integrated computer control, this instrument passes user-programmed electrical stimulus protocols to cells within the wells of the microtiter plate.
16-20 hours prior to running the assay on E-VIPR, HEK cells expressing a truncated form of human NaV 1.8 with full channel activity were seeded into microtiter 384-well plates, pre-coated with matrigel, at a density of 25,000 cells per well. 2.5-5% KIR2.1 Bacmam virus was added to the final cell suspension before seeding into cell plates. HEK cells were grown in Dulbecco's Modified Eagle's Medium (DMEM) supplemented with 10% FBS (Fetal Bovine Serum, qualified; Sigma #F4135), 1% NEAA (Non-Essential Amino Acids, Gibco #11140), 1% HEPES (Gibco #15630), 1% Pen-Strep (Penicillin-Streptomycin; Gibco #15140) and 5 μg/ml Blasticidin (Gibco #R210-01). Cells were expanded in vented cap cell culture flasks, with 90-95% humidity and 5% CO2.
2.5-5% KIR 2.1 Bacmam virus (produced in-house), prepared as described in Section 3.3 of J. A. Fornwald et al., Gene Expression in Mammalian Cells Using BacMam, a Modified Baculovirus System, 1350 Methods in Molecular Biology 95-116 (2016), the entire contents of which are incorporated by reference. The concentration used can be dependent on viral titer of each batch.
5 mM DiSBAC6(3), a voltage sensitive oxonol acceptor (CAS number 169211-44-3; 5-[3-(1,3-dihexylhexahydro-4,6-dioxo-2-thioxo-5-pyrimidinyl)-2-propen-1-ylidene]-1,3-dihexyldihydro-2-thioxo-4,6(1H,5H)-pyrimidinedione), in dry DMSO. The preparation of DiSBAC6(3) is analogous to that of DiSBAC4(3) as described in Voltage Sensing by Fluorescence Resonance Energy Transfer in Single Cells, Gonzalez, J. E. and Tsien, R. Y. (1995) Biophys. J. 69, 1272-1280.
5 mM CC2-DMPE, a commercially available membrane-bound coumarin phospholipid FRET donor (ThermoFisher Scientific catalog number K1017, CAS number 393782-57-5; tetradecanoic acid, 1,1′-[(1R)-1-[8-(6-chloro-7-hydroxy-2-oxo-2H-1-benzopyran-3-yl)-3-hydroxy-3-oxido-8-oxo-2,4-dioxa-7-aza-3-phosphaoct-1-yl]-1,2-ethanediyl] ester) was prepared in dry DMSO. See also, Improved indicators of cell membrane potential that use fluorescence resonance energy transfer, Gonzalez, J. E. and Tsien, R. Y. (1997) Chem. Biol. 4, 269-277.
Voltage Assay Background Suppression Compound (VABSC-1) is prepared in H2O (89-363 mM, range used to maintain solubility)
Human Serum (HS, Millipore #S1P1-01KL, or Sigma SLBR5469V and SLBR5470V as a 50%/50% mixture, for 25% assay final concentration)
• Sodium Chloride 160 mM (9.35 g/L), Potassium Chloride, 4.5 mM (0.335 g/L), Glucose • 10 mM (1.8 g/L), Magnesium Chloride (Anhydrous) 1 mM (0.095 g/L), Calcium • Chloride 2 mM (0.222 g/L), HEPES 10 mM (2.38 g/L) in water.
• Sodium Chloride 96 mM (5.61 g/L), Potassium Chloride 4.5 mM (0.335 g/L), • Tetramethylammonium (TMA)-Cl 64 mM (7.01 g/L), Glucose 10 mM (1.8 g/L), • Magnesium Chloride (Anhydrous) 1 mM (0.095 g/L), Calcium Chloride 2 mM (0.222 • g/L) HEPES 10 mM (2.38 g/L) in water. […]

human NaV 1.8, sequence (Q9Y5Y9 126-1722 limits assumed): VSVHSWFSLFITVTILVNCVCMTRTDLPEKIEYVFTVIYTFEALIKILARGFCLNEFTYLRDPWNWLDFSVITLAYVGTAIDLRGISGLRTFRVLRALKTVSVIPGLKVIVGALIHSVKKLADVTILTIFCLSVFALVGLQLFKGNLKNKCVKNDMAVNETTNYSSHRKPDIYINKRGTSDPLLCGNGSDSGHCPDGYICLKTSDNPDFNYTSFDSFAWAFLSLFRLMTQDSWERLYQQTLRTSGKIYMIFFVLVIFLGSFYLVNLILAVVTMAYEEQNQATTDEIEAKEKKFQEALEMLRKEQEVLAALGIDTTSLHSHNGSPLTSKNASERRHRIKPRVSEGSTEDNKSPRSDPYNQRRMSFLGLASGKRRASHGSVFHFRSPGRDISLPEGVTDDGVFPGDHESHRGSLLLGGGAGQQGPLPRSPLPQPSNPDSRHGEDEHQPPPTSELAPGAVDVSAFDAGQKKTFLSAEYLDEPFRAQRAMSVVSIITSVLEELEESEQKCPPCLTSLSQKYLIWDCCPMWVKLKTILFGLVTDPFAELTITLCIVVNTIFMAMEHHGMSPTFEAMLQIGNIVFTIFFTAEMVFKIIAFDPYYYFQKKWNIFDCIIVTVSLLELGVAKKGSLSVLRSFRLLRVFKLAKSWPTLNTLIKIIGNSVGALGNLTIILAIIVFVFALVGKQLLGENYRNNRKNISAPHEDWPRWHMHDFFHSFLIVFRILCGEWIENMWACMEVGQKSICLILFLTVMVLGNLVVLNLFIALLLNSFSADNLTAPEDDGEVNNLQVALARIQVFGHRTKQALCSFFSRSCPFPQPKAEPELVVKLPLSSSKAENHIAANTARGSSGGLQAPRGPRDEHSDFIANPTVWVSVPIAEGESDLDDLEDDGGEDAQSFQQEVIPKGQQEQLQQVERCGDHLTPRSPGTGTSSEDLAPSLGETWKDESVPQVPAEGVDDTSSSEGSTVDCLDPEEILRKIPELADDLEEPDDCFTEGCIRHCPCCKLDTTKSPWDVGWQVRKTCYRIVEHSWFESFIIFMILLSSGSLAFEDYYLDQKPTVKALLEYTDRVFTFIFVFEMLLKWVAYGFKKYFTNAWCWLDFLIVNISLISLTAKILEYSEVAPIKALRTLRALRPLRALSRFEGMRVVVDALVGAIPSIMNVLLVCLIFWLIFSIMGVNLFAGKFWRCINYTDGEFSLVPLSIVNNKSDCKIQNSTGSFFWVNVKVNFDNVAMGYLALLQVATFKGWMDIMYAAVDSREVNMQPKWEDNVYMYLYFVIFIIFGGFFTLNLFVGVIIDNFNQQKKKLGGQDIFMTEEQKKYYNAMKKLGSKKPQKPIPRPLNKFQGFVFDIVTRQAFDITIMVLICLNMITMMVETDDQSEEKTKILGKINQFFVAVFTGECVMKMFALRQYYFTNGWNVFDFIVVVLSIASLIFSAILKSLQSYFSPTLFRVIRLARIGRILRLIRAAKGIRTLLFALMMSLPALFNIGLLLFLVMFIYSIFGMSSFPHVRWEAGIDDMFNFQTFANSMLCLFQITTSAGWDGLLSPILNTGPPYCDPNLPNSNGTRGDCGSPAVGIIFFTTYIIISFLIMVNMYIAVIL

Regarding `COc1c([C@H]2[C@H](C(=O)Nc3cnc4c(c3)OCC4O)O[C@@](C)(C(F)(F)F)[C@H]2C)ccc(F)c1F` (single isomer, unassigned) [Compound 1, rel-(2R*,3S*,4S*,5R*)-3-(3,4-difluoro-2-methoxyphenyl)-N-(3-hydroxy-2,3-dihydrofuro[3,2-b]pyridin-6-yl)-4,5-dimethyl-5-(trifluoromethyl)tetrahydrofuran-2-carboxamide], the IC50 fell in the range of 10 to 100 nM. Under `COc1c([C@H]2[C@H](C(=O)Nc3cnc4c(c3)OCC4O)O[C@@](C)(C(F)(F)F)[C@H]2C)ccc(F)c1F` (single isomer, unassigned) [Compound 2, rel-(2R*,3S*,4S*,5R*)-3-(3,4-difluoro-2-methoxyphenyl)-N-(3-hydroxy-2,3-dihydrofuro[3,2-b]pyridin-6-yl)-4,5-dimethyl-5-(trifluoromethyl)tetrahydrofuran-2-carboxamide] stands 100 to 1000 nM. Next, `COc1c([C@H]2[C@H](C(=O)Nc3cnc4c(c3)CCC4O)O[C@@](C)(C(F)(F)F)[C@H]2C)ccc(F)c1F` (single isomer, unassigned) [Compound 3, rel-(2R*,3S*,4S*,5R*)-3-(3,4-difluoro-2-methoxyphenyl)-N-(7-hydroxy-6,7-dihydro-5H-cyclopenta[b]pyridin-3-yl)-4,5-dimethyl-5-(trifluoromethyl)tetrahydrofuran-2-carboxamide]: 100 to 1000 nM; `COc1c([C@H]2[C@H](C(=O)Nc3cnc4c(c3)CCC4O)O[C@@](C)(C(F)(F)F)[C@H]2C)ccc(F)c1F` (single isomer, unassigned) [Compound 4, rel-(2R*,3S*,4S*,5R*)-3-(3,4-difluoro-2-methoxyphenyl)-N-(7-hydroxy-6,7-dihydro-5H-cyclopenta[b]pyridin-3-yl)-4,5-dimethyl-5-(trifluoromethyl)tetrahydrofuran-2-carboxamide]: 10 to 100 nM. Consider `COCCOc1c([C@@H]2[C@@H](C(=O)Nc3cnc(C(O)CO)nc3)O[C@](C)(C(F)(F)F)[C@@H]2C)ccc(F)c1C` (single isomer, unassigned) [Compound 13], for which the IC50 was at least 1000 nM. In the case of `COCCOc1c([C@H]2[C@@H](C)[C@@](C)(C(F)(F)F)O[C@H]2C(=O)Nc2cnc(C(O)CO)nc2)ccc(F)c1C` (single isomer, unassigned) [Compound 15], the IC50 is at least 1000 nM. Under `COCCOc1c([C@H]2[C@@H](C(=O)Nc3cnc(C(O)CO)nc3)O[C@@](C)(C(F)(F)F)[C@H]2C)ccc(F)c1C` (single isomer, unassigned) [Compound 16] stands at least 1000 nM; under `COCCOc1c([C@H]2[C@H](C(=O)Nc3cnc(C(O)CO)nc3)O[C@@](C)(C(F)(F)F)[C@H]2C)ccc(F)c1C` (single isomer, unassigned) [Compound 17], 10 to 100 nM; under `COCCOc1c([C@H]2[C@H](C(=O)Nc3ccc(C(O)COC)nc3)O[C@@](C)(C(F)(F)F)[C@H]2C)ccc(F)c1F` (single isomer, unassigned) [Compound 21, rel-(2R*,3S*,4S*,5R*)-3-(3,4-difluoro-2-(2-methoxyethoxy)phenyl)-N-(6-(1-hydroxy-2-methoxyethyl)pyridin-3-yl)-4,5-dimethyl-5-(trifluoromethyl)tetrahydrofuran-2-carboxamide], 10 to 100 nM. Next, `CO[C@@H](C)COc1c([C@H]2[C@H](C(=O)Nc3ccc(CO)nc3)O[C@@](C)(C(F)(F)F)[C@H]2C)ccc(F)c1F` [Compound 5, (2R,3S,4S,5R)-3-(3,4-difluoro-2-((S)-2-methoxypropoxy)phenyl)-N-(6-(hydroxymethyl)pyridin-3-yl)-4,5-dimethyl-5-(trifluoromethyl)tetrahydrofuran-2-carboxamide]: 10 to 100 nM; `CO[C@H](C)COc1c([C@H]2[C@H](C(=O)Nc3ccc(CO)nc3)O[C@@](C)(C(F)(F)F)[C@H]2C)ccc(F)c1F` [Compound 6, (2R,3S,4S,5R)-3-(3,4-difluoro-2-((R)-2-methoxypropoxy)phenyl)-N-(6-(hydroxymethyl)pyridin-3-yl)-4,5-dimethyl-5-(trifluoromethyl)tetrahydrofuran-2-carboxamide]: 10 to 100 nM; `C[C@H]1[C@@H](c2ccc(F)c(F)c2OCC(=O)N(C)C)[C@H](C(=O)Nc2ccc(CO)nc2)O[C@@]1(C)C(F)(F)F` [Compound 7, (2R,3S,4S,5R)-3-(2-(2-(dimethylamino)-2-oxoethoxy)-3,4-difluorophenyl)-N-(6-(hydroxymethyl)pyridin-3-yl)-4,5-dimethyl-5-(trifluoromethyl)tetrahydrofuran-2-carboxamide]: 10 to 100 nM.

Regarding `C[C@H]1[C@@H](c2ccc(F)c(F)c2OC2CC3(COC3)C2)[C@H](C(=O)Nc2ccc(CO)nc2)O[C@@]1(C)C(F)(F)F` [Compound 8, (2R,3S,4S,5R)-3-(2-((2-oxaspiro[3.3]heptan-6-yl)oxy)-3,4-difluorophenyl)-N-(6-(hydroxymethyl)pyridin-3-yl)-4,5-dimethyl-5-(trifluoromethyl)tetrahydrofuran-2-carboxamide], the IC50 lay in the range of 100 to 1000 nM. Under `C[C@H]1[C@@H](c2ccc(F)c(F)c2OCC2CCOC2)[C@H](C(=O)Nc2ccc(CO)nc2)O[C@@]1(C)C(F)(F)F` (stereo partly drawn) [Compound 9, (2R,3S,4S,5R)-3-(3,4-difluoro-2-((tetrahydrofuran-3-yl)methoxy)phenyl)-N-(6-(hydroxymethyl)pyridin-3-yl)-4,5-dimethyl-5-(trifluoromethyl)tetrahydrofuran-2-carboxamide] stands 10 to 100 nM; under `COCCOc1c([C@H]2[C@H](C(=O)Nc3ccc([C@@H](O)CO)nc3)O[C@@](C)(C(F)(F)F)[C@H]2C)ccc(F)c1F` [Compound 10, (2R,3S,4S,5R)-3-(3,4-difluoro-2-(2-methoxyethoxy)phenyl)-N-(6-((R)-1,2-dihydroxyethyl)pyridin-3-yl)-4,5-dimethyl-5-(trifluoromethyl)tetrahydrofuran-2-carboxamide], below 10 nM.

Regarding `C[C@H]1[C@@H](c2ccc(F)c(F)c2OCCN2CCOCC2)[C@H](C(=O)Nc2ccc([C@@H](O)CO)nc2)O[C@@]1(C)C(F)(F)F` [Compound 11, (2R,3S,4S,5R)-3-(3,4-difluoro-2-(2-morpholinoethoxy)phenyl)-N-(6-((R)-1,2-dihydroxyethyl)pyridin-3-yl)-4,5-dimethyl-5-(trifluoromethyl)tetrahydrofuran-2-carboxamide], the IC50 fell in the range of 10 to 100 nM. Consider `C[C@H]1[C@@H](c2ccc(F)c(F)c2OCCOC(F)F)[C@H](C(=O)Nc2ccc([C@@H](O)CO)nc2)O[C@@]1(C)C(F)(F)F` [Compound 12, (2R,3S,4S,5R)-3-(2-(2-(difluoromethoxy)ethoxy)-3,4-difluorophenyl)-N-(6-((R)-1,2-dihydroxyethyl)pyridin-3-yl)-4,5-dimethy1-5-(trifluoromethyl)tetrahydrofuran-2-carboxamide], for which the IC50 fell in the range of 10 to 100 nM. Next, `C[C@H]1[C@@H](c2ccc(F)c(F)c2OCCO)[C@H](C(=O)Nc2ccc(CO)nc2)O[C@@]1(C)C(F)(F)F` [Compound 23, (2R,3S,4S,5R)-3-(3,4-difluoro-2-(2-hydroxyethoxy)phenyl)-N-(6-(hydroxymethyl)pyridin-3-yl)-4,5-dimethyl-5-(trifluoromethyl)tetrahydrofuran-2-carboxamide]: 10 to 100 nM.

(Values after patent US20240400544A1, “N-(HYDROXYALKYL (HETERO)ARYL) TETRAHYDROFURAN CARBOXAMIDE ANALOGS AS MODULATORS OF SODIUM CHANNELS” (VERTEX PHARMACEUTICALS INCORPORATED, priority 2021, published 2024).)
